Measurements as given in PubChem BioAssay (NCI).
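At the GI50, growth is halved. The concentration for full growth arrest is given as TGI.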

What was measured:
Assay in all cases: NCI anticancer screen, dose series, 384-well format
786-0 renal = system: 786-0 renal
K-562 leukemia = system: K-562 leukemia
UACC-62 melanoma = system: UACC-62 melanoma
OVCAR-8 ovarian = system: OVCAR-8 ovarian
SNB-75 CNS = system: SNB-75 CNS
HOP-92 NSCLC = system: HOP-92 NSCLC
CCRF-CEM leukemia = system: CCRF-CEM leukemia
KM12 colon = system: KM12 colon
M14 melanoma = system: M14 melanoma
TK-10 renal = system: TK-10 renal
A549 NSCLC = system: A549 NSCLC
HOP-62 NSCLC = system: HOP-62 NSCLC
MOLT-4 leukemia = system: MOLT-4 leukemia
SK-MEL-28 melanoma = system: SK-MEL-28 melanoma
RXF 393 renal = system: RXF 393 renal
SR leukemia = system: SR leukemia
A498 renal = system: A498 renal
SNB-19 CNS = system: SNB-19 CNS
MDA-MB-231 breast = system: MDA-MB-231 breast
OVCAR-4 ovarian = system: OVCAR-4 ovarian
SW-620 colon = system: SW-620 colon
COLO 205 colon = system: COLO 205 colon
NCI/ADR-RES ovarian = system: NCI/ADR-RES ovarian
PC-3 prostate = system: PC-3 prostate
U251 glioblastoma = system: U251 glioblastoma
HCC-2998 colon = system: HCC-2998 colon
NCI-H460 NSCLC = system: NCI-H460 NSCLC
SF-295 CNS = system: SF-295 CNS
OVCAR-3 ovarian = system: OVCAR-3 ovarian
HS 578T breast = system: HS 578T breast
BT-549 breast = system: BT-549 breast
OVCAR-5 ovarian = system: OVCAR-5 ovarian
SK-MEL-5 melanoma = system: SK-MEL-5 melanoma
LOX IMVI melanoma = system: LOX IMVI melanoma
SF-268 CNS = system: SF-268 CNS
UACC-257 melanoma = system: UACC-257 melanoma
IGROV1 ovarian = system: IGROV1 ovarian
NCI-H23 lung = system: NCI-H23 lung
NCI-H522 lung = system: NCI-H522 lung
SK-OV-3 ovarian = system: SK-OV-3 ovarian
SF-539 CNS = system: SF-539 CNS
HL-60(TB) leukemia = system: HL-60(TB) leukemia
MCF7 breast = system: MCF7 breast
MDA-MB-435 melanoma = system: MDA-MB-435 melanoma
ACHN renal = system: ACHN renal
RPMI-8226 leukemia = system: RPMI-8226 leukemia
EKVX NSCLC = system: EKVX NSCLC
MDA-MB-468 breast = system: MDA-MB-468 breast
UO-31 renal = system: UO-31 renal
T-47D breast = system: T-47D breast
MALME-3M melanoma = system: MALME-3M melanoma
NCI-H226 lung = system: NCI-H226 lung
HT29 colon = system: HT29 colon
NCI-H322M lung = system: NCI-H322M lung
HCT-15 colon = system: HCT-15 colon
DU-145 prostate = system: DU-145 prostate
CAKI-1 renal = system: CAKI-1 renal
SN12C renal = system: SN12C renal

Q: Which results are given for COCCOC(=O)C1=C(C)NC2=C(C(=O)CC(c3ccccc3OC)C2)C1c1cccc(O)c1 (stereo unspecified)?
A: GI50 (786-0 renal): 5.49 µM; TGI (786-0 renal): 24.2 µM; GI50 (K-562 leukemia): 5.62 µM; TGI (K-562 leukemia): 19.6 µM; GI50 (UACC-62 melanoma): 2380 nM; TGI (UACC-62 melanoma): 16.6 µM; GI50 (OVCAR-8 ovarian): 6.94 µM; TGI (OVCAR-8 ovarian): 21.6 µM; GI50 (SNB-75 CNS): 9.16 µM; TGI (SNB-75 CNS): 98.6 µM; GI50 (HOP-92 NSCLC): 4.02 µM; TGI (HOP-92 NSCLC): 21 µM; GI50 (CCRF-CEM leukemia): 5.99 µM; TGI (CCRF-CEM leukemia): 19.4 µM; GI50 (KM12 colon): 9.21 µM; TGI (KM12 colon): 26.2 µM; GI50 (M14 melanoma): 11 µM; TGI (M14 melanoma): 34.9 µM; GI50 (TK-10 renal): 8.47 µM; TGI (TK-10 renal): 28.1 µM; GI50 (A549 NSCLC): 6.88 µM; TGI (A549 NSCLC): 31 µM; GI50 (HOP-62 NSCLC): 5.19 µM; TGI (HOP-62 NSCLC): 22.1 µM; GI50 (MOLT-4 leukemia): 7.21 µM; TGI (MOLT-4 leukemia): 20.7 µM; GI50 (SK-MEL-28 melanoma): 11 µM; TGI (SK-MEL-28 melanoma): 31 µM; GI50 (RXF 393 renal): 16.2 µM; TGI (RXF 393 renal): 34.9 µM; GI50 (SR leukemia): 761 nM; TGI (SR leukemia): 11.5 µM; GI50 (A498 renal): 10.6 µM; TGI (A498 renal): 29.6 µM; GI50 (SNB-19 CNS): 11.4 µM; TGI (SNB-19 CNS): 38 µM; GI50 (MDA-MB-231 breast): 4.79 µM; TGI (MDA-MB-231 breast): 60.4 µM; GI50 (OVCAR-4 ovarian): 2140 nM; TGI (OVCAR-4 ovarian): 8.76 µM; GI50 (SW-620 colon): 13 µM; TGI (SW-620 colon): 27 µM; GI50 (COLO 205 colon): 7.74 µM; TGI (COLO 205 colon): 24.6 µM; GI50 (NCI/ADR-RES ovarian): 46.3 µM; TGI (NCI/ADR-RES ovarian): > 100 µM; GI50 (PC-3 prostate): 15.6 µM; TGI (PC-3 prostate): 53.6 µM; GI50 (U251 glioblastoma): 17.2 µM; TGI (U251 glioblastoma): 44 µM; GI50 (HCC-2998 colon): 3.67 µM; TGI (HCC-2998 colon): 15.2 µM; GI50 (NCI-H460 NSCLC): 14.7 µM; TGI (NCI-H460 NSCLC): 30.8 µM; GI50 (SF-295 CNS): 16.2 µM; TGI (SF-295 CNS): 37.5 µM; GI50 (OVCAR-3 ovarian): 5.05 µM; TGI (OVCAR-3 ovarian): 17.6 µM; GI50 (HS 578T breast): 1930 nM; TGI (HS 578T breast): 8.82 µM; GI50 (BT-549 breast): 2550 nM; TGI (BT-549 breast): 14.9 µM; GI50 (OVCAR-5 ovarian): 12 µM; TGI (OVCAR-5 ovarian): 43.1 µM; GI50 (SK-MEL-5 melanoma): 4.43 µM; TGI (SK-MEL-5 melanoma): 18.1 µM; GI50 (LOX IMVI melanoma): 3.75 µM; TGI (LOX IMVI melanoma): 13.6 µM; GI50 (SF-268 CNS): 15.5 µM; TGI (SF-268 CNS): 37 µM; GI50 (UACC-257 melanoma): 5.14 µM; TGI (UACC-257 melanoma): 22.8 µM; GI50 (IGROV1 ovarian): 8.28 µM; TGI (IGROV1 ovarian): 24.7 µM; GI50 (NCI-H23 lung): 8.58 µM; TGI (NCI-H23 lung): 25.8 µM; GI50 (NCI-H522 lung): 2390 nM; TGI (NCI-H522 lung): 13.7 µM; GI50 (SK-OV-3 ovarian): 3.74 µM; TGI (SK-OV-3 ovarian): 20.4 µM; GI50 (SF-539 CNS): 11.2 µM; TGI (SF-539 CNS): 27.3 µM; GI50 (HL-60(TB) leukemia): 1270 nM; TGI (HL-60(TB) leukemia): 3.17 µM; GI50 (MCF7 breast): 2680 nM; TGI (MCF7 breast): 20.7 µM; GI50 (MDA-MB-435 melanoma): 9.55 µM; TGI (MDA-MB-435 melanoma): 24.8 µM; GI50 (ACHN renal): 17.3 µM; TGI (ACHN renal): 55.6 µM; GI50 (RPMI-8226 leukemia): 1080 nM; TGI (RPMI-8226 leukemia): 4.87 µM; GI50 (EKVX NSCLC): 17.6 µM; TGI (EKVX NSCLC): 62.2 µM; GI50 (MDA-MB-468 breast): 2500 nM; TGI (MDA-MB-468 breast): 7.67 µM; GI50 (UO-31 renal): 34.6 µM; TGI (UO-31 renal): > 100 µM; GI50 (T-47D breast): 8.93 µM; TGI (T-47D breast): 66.7 µM; GI50 (MALME-3M melanoma): 4.14 µM; TGI (MALME-3M melanoma): 23.2 µM; GI50 (NCI-H226 lung): 4.91 µM; TGI (NCI-H226 lung): 27.6 µM; GI50 (HT29 colon): 6.75 µM; TGI (HT29 colon): 22.2 µM; GI50 (NCI-H322M lung): 12.7 µM; TGI (NCI-H322M lung): > 100 µM; GI50 (HCT-15 colon): 11.6 µM; TGI (HCT-15 colon): 27 µM; GI50 (DU-145 prostate): 18.5 µM; TGI (DU-145 prostate): 65 µM; GI50 (CAKI-1 renal): 4.44 µM; TGI (CAKI-1 renal): 27.9 µM; GI50 (SN12C renal): 15.6 µM; TGI (SN12C renal): 41.2 µM
